Counter-ions that a name gives are not always drawn.
Each compound was assayed against ileal bile acid cotransporter (iBAT) (Homo sapiens (Human), UniProt Q12908) (assay: Human iBAT inhibition: [3H]-taurocholate uptake into HEK293 cells expressing human iBAT). Conditions: HEK293 cells transduced with human iBAT Bacmam virus, 90 minutes at ambient temperature, mean of at least 2 datapoints.
Type: cell-based
Method: Method for Determination of Human iBAT Inhibition:
In preparation for measurement of bile acid uptake into cells expressing the ileal bile acid cotransporter (iBAT), HEK293 cells were cultured in DMEM/F12 supplemented with 10% FBS. Twenty four hours prior to running an experiment, cells were harvested when at a confluence of 80-90%. Cells were seeded in poly-d-lysine coated plates at 50,000 cells per well, and human iBAT Bacmam virus was added such that each well contains 3.67×10e6 pfu (73.4pfu/cell). Each assay plate was covered with Breathe Easy Seal and placed in an incubator for 24 hours to allow expression of the transporter.
On the day of the uptake experiment, 10 mM HEPES was added to Hank's Balanced Salt Solution, and the pH was adjusted to 7.4 with TRIS (HBSSH). The assay buffer was prepared by adding […] [^3H]-taurocholate and 10 μM cold taurocholate to room temperature HBSSH. A separate washing buffer was prepared by adding 10 μM cold taurocholate to HBSSH (˜30 ml per assay plate) and placed on ice. Using 100% DMSO, 8 point, 3-fold dilution curves for each test compound was prepared starting at 200 μM. Similarly, an 8 point dose response curve was prepared of the control compound [(3R,5R)-3-butyl-3-ethyl-7,8-bis(methyloxy)-5-phenyl-2,3,4,5-tetrahydro-1,4-benzothiazepine 1,1-dioxide (Brieaddy, L. E. WO9605188, 1996)] starting at 1.8 mM. Drug plates were created by adding 3 μL of each concentration to a v-bottom 96-well plate then diluted 60-fold with 177 μL of assay buffer. Plates were removed from the incubator and allowed to cool to ambient temperature. Media was aspirated, and wells were washed once with 300 μL HBSSH. 50 μL of each dose response curve concentration was added in triplicate by column to the assay plates, reserving column 10 for control (assay buffer+1.67% DMSO) and columns 11 and 12 for the control compound. Plates were incubated at ambient temperature for 90 minutes then the plates were aspirated then washed 1× with 300 μL of wash buffer. 220 μL of Microscint 20 was added to each well, and the plates were sealed. The amount of [^3H]-taurocholate in cell lysate was quantitated using a microplate scintillation counter on the following day.
IC50's can be generated using the formula, y=(Vmax*x^n)/(K^n+x^n).

Sequence of ileal bile acid cotransporter (iBAT) (Q12908 whole entry): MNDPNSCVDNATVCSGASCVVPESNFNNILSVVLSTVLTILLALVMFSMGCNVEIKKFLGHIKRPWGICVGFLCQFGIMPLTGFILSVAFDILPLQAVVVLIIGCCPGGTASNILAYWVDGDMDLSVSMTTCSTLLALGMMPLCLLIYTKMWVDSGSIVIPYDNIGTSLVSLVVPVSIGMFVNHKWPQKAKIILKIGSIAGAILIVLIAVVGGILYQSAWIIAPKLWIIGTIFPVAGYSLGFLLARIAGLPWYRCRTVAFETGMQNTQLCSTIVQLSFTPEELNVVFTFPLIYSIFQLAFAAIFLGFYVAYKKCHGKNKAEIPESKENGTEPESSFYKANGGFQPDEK

Point of comparison: CCCC[C@]1(CC)CS(=O)(=O)c2cc(CCC(=O)NCS(=O)(=O)O)c(OC)cc2[C@@H](c2ccccc2)N1 [Example 13, ({3-[(3R,5R)-3-butyl-3-ethyl-7-(methyloxy)-1,1-dioxido-5-phenyl-2,3,4,5-tetrahydro-1,4-benzothiazepin-8-yl]propanoyl}amino)methanesulfonic acid], IC50 167 nM. Against it:
- CCCC[C@]1(CC)CS(=O)(=O)c2cc(CN[C@@H](CSSC[C@H](N)C(=O)O)C(=O)O)c(OC)cc2[C@@H](c2ccccc2)N1 [Example 53, N-{[(3R,5R)-3-butyl-3-ethyl-7-(methyloxy)-1,1-dioxido-5-phenyl-2,3,4,5-tetrahydro-1,4-benzothiazepin-8-yl]methyl}-L-cystine bis-ammonium salt] — 2.5-fold lower, 67 nM
- CCCC[C@]1(CC)CS(=O)(=O)c2cc(CCCP(=O)(O)O)c(OC)cc2[C@@H](c2ccccc2)N1 [Example 21, {3-[(3R,5R)-3-butyl-3-ethyl-7-(methyloxy)-1,1-dioxido-5-phenyl-2,3,4,5-tetrahydro-1,4-benzothiazepin-8-yl]propyl}phosphonic acid trifluoroacetate salt] — 3.3-fold lower, 51 nM
- CCCC[C@]1(CC)CS(=O)(=O)c2cc(CNC(=O)CS(=O)(=O)O)c(OC)cc2[C@@H](c2ccccc2)N1 [Example 37, 2-({[(3R,5R)-3-butyl-3-ethyl-7-(methyloxy)-1,1-dioxido-5-phenyl-2,3,4,5-tetrahydro-1,4-benzothiazepin-8-yl]methyl}amino)-2-oxoethanesulfonic acid] — 19-fold lower, 9 nM
- CCCC[C@]1(CC)CS(=O)(=O)c2cc(CCCNCCS(=O)(=O)O)c(OC)cc2[C@@H](c2ccccc2)N1 [Example 22, 2-({3-[(3R,5R)-3-butyl-3-ethyl-7-(methyloxy)-1,1-dioxido-5-phenyl-2,3,4,5-tetrahydro-1,4-benzothiazepin-8-yl]propyl}amino)ethanesulfonic acid] — 15-fold higher, 2440 nM
- CCCC[C@]1(CC)CS(=O)(=O)c2cc(CNC(CC(=O)O)CC(=O)O)c(N(C)C)cc2[C@@H](c2ccccc2)N1 [Example 69, 3-({[(3R,5R)-3-butyl-7-(dimethylamino)-3-ethyl-1,1-dioxido-5-phenyl-2,3,4,5-tetrahydro-1,4-benzothiazepin-8-yl]methyl}amino)pentanedioic acid bis-ammonium salt] — 8.8-fold lower, 19 nM
- CCCC[C@]1(CC)CS(=O)(=O)c2cc(CCCO)c(OC)cc2[C@@H](c2ccccc2)N1 [Example 19, 3-[(3R,5R)-3-butyl-3-ethyl-7-(methyloxy)-1,1-dioxido-5-phenyl-2,3,4,5-tetrahydro-1,4-benzothiazepin-8-yl]-1-propanol] — 3.7-fold higher, 622 nM
- CCCC[C@]1(CC)CS(=O)(=O)c2cc(CN[C@H](CC(=O)O)C(=O)O)c(OC)cc2[C@@H](c2ccccc2)N1 [Example 28, N-{[(3R,5R)-3-butyl-3-ethyl-7-(methyloxy)-1,1-dioxido-5-phenyl-2,3,4,5-tetrahydro-1,4-benzothiazepin-8-yl]methyl}-D-aspartic acid trifluoroacetate salt] — 3-fold lower, 55 nM
- CCCC[C@]1(CC)CS(=O)(=O)c2cc(C(=O)NCS(=O)(=O)O)c(OC)cc2[C@@H](c2ccccc2)N1 [Example 2, ({[(3R,5R)-3-butyl-3-ethyl-7-(methyloxy)-1,1-dioxido-5-phenyl-2,3,4,5-tetrahydro-1,4-benzothiazepin-8-yl]carbonyl}amino)methanesulfonic acid] — 15-fold lower, 11 nM
- CCCC[C@]1(CC)CS(=O)(=O)c2cc(CN[C@@H](CO)C(=O)O)c(OC)cc2[C@@H](c2ccccc2)N1 [Example 52, N-{[(3R,5R)-3-butyl-3-ethyl-7-(methyloxy)-1,1-dioxido-5-phenyl-2,3,4,5-tetrahydro-1,4-benzothiazepin-8-yl]methyl}-L-serine bis-ammonium salt] — 2.8-fold lower, 59 nM
- CCCC[C@]1(CC)CS(=O)(=O)c2cc(CNC(CC(=O)O)CC(=O)O)c(OC)cc2[C@@H](c2ccccc2)N1O [Example 50, 3-({[(3R,5R)-3-butyl-3-ethyl-4-hydroxy-7-(methyloxy)-1,1-dioxido-5-phenyl-2,3,4,5-tetrahydro-1,4-benzothiazepin-8-yl]methyl}amino)pentanedioic acid trifluoroacetate salt] — 3.3-fold lower, 51 nM
- CCCC[C@]1(CC)CS(=O)(=O)c2cc(C(=O)NCC(C)(C)C(=O)O)c(OC)cc2[C@@H](c2ccccc2)N1 [Example 1, 3-({[(3R,5R)-3-butyl-3-ethyl-7-(methyloxy)-1,1-dioxido-5-phenyl-2,3,4,5-tetrahydro-1,4-benzothiazepin-8-yl]carbonyl}amino)-2,2-dimethylpropanoic acid] — 5.2-fold lower, 32 nM
- CCCC[C@]1(CC)CS(=O)(=O)c2cc(CNC(=O)C(=O)O)c(OC)cc2[C@@H](c2ccccc2)N1 [Example 64, ({[(3R,5R)-3-butyl-3-ethyl-7-(methyloxy)-1,1-dioxido-5-phenyl-2,3,4,5-tetrahydro-1,4-benzothiazepin-8-yl]methyl}amino)(oxo)acetic acid] — 28-fold lower, 6 nM
- CCCC[C@]1(CC)CS(=O)(=O)c2cc(C(=O)NCCS(=O)(=O)O)c(OC)cc2[C@@H](c2ccccc2)N1 [Example 3, 2-({[(3R,5R)-3-butyl-3-ethyl-7-(methyloxy)-1,1-dioxido-5-phenyl-2,3,4,5-tetrahydro-1,4-benzothiazepin-8-yl]carbonyl}amino)ethanesulfonic acid trifluoroacetate] — 84-fold lower, 2 nM
- CCCC[C@]1(CC)CS(=O)(=O)c2cc(CNCC(=O)O)c(OC)cc2[C@H](c2ccccc2)N1 [Example 44, N-{[(3R,5S)-3-butyl-3-ethyl-7-(methyloxy)-1,1-dioxido-5-phenyl-2,3,4,5-tetrahydro-1,4-benzothiazepin-8-yl]methyl}glycine trifluoroacetate salt] — 3.9-fold higher, 648 nM
- CCCC[C@]1(CC)CS(=O)(=O)c2cc(C(N)=O)c(OC)cc2[C@@H](c2ccccc2)N1 [Example 8, (3R,5R)-3-butyl-3-ethyl-7-(methyloxy)-5-phenyl-2,3,4,5-tetrahydro-1,4-benzothiazepine-8-carboxamide-1,1-dioxide] — 2.3-fold lower, 73 nM
- CCCC[C@]1(CC)CS(=O)(=O)c2cc(CNCC(=O)O)c(OC)cc2[C@@H](c2ccccc2)N1O [Example 46, N-{[(3R,5R)-3-butyl-3-ethyl-4-hydroxy-7-(methyloxy)-1,1-dioxido-5-phenyl-2,3,4,5-tetrahydro-1,4-benzothiazepin-8-yl]methyl}glycine] — 84-fold lower, 2 nM
- CCCC[C@]1(CC)CS(=O)(=O)c2cc(CCC(=O)O)c(OC)cc2[C@@H](c2ccccc2)N1 [Example 10, 3-[(3R,5R)-3-butyl-3-ethyl-7-(methyloxy)-1,1-dioxido-5-phenyl-2,3,4,5-tetrahydro-1,4-benzothiazepin-8-yl]propanoic acid] — 9.8-fold lower, 17 nM
- CCCC[C@]1(CC)CS(=O)(=O)c2cc(/C=C/P(=O)(O)O)c(OC)cc2[C@@H](c2ccccc2)N1 [Example 55, {(E)-2-[(3R,5R)-3-butyl-3-ethyl-7-(methyloxy)-1,1-dioxido-5-phenyl-2,3,4,5-tetrahydro-1,4-benzothiazepin-8-yl]ethenyl}phosphonic acid bis-ammonium salt] — within 1.5-fold, 131 nM
- CCCC[C@]1(CC)CS(=O)(=O)c2cc(CNC(=O)CCS(=O)(=O)O)c(OC)cc2[C@@H](c2ccccc2)N1 [Example 42, 3-({[(3R,5R)-3-butyl-3-ethyl-7-(methyloxy)-1,1-dioxido-5-phenyl-2,3,4,5-tetrahydro-1,4-benzothiazepin-8-yl]methyl}amino)-3-oxo-1-propanesulfonic] — within 1.5-fold, 128 nM
- CCCC[C@]1(CC)CS(=O)(=O)c2cc(CN(CP(=O)(O)O)CP(=O)(O)O)c(OC)cc2[C@@H](c2ccccc2)N1 [Example 60, [({[(3R,5R)-3-butyl-3-ethyl-7-(methyloxy)-1,1-dioxido-5-phenyl-2,3,4,5-tetrahydro-1,4-benzothiazepin-8-yl]methyl}imino)dimethanediyl]bis(phosphonic acid) tetraammonium salt] — 20-fold higher, 3330 nM
- CCCC[C@]1(CC)CS(=O)(=O)c2cc(CCC(=O)N(CC(=O)O)CC(=O)O)c(OC)cc2[C@@H](c2ccccc2)N1 [Example 18, 2,2′-({3-[(3R,5R)-3-butyl-3-ethyl-7-(methyloxy)-1,1-dioxido-5-phenyl-2,3,4,5-tetrahydro-1,4-benzothiazepin-8-yl]propanoyl}imino)diacetic acid] — 4.4-fold higher, 728 nM
- CCCC[C@]1(CC)CS(=O)(=O)c2cc(CN[C@@H](CCCCN)C(=O)O)c(OC)cc2[C@@H](c2ccccc2)N1 [Example 58, N^2-{[(3R,5R)-3-butyl-3-ethyl-7-(methyloxy)-1,1-dioxido-5-phenyl-2,3,4,5-tetrahydro-1,4-benzothiazepin-8-yl]methyl}-L-lysine ammonium salt] — 8.7-fold higher, 1460 nM

From patent publication US9040518B2, “Chemical compounds” (GlaxoSmithKline LLC, priority 2010, dated 2015)
